# Measured values published in ChEMBL document CHEMBL1201862, “PubChem BioAssay data set” (2004).
#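 Results reflect a 48-hour exposure of cells in 96-well plates to compound at five concentrations. GI50 is the concentration that inhibits growth by half.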 Active and inactive are the calls of the source. Rule as the data show it: active = GI50 up to about 1.1 µM and inactive = higher.
# Legend:
# Assay in all cases: DTP human tumour cell line panel, 48 h
# [1] = system: SNB-19
# [2] = system: RPMI-8226
# [3] = system: SN12C
# [4] = system: CAKI-1
# [5] = system: Hs-578T
# [6] = system: OVCAR-4
# [7] = system: SF-268
# [8] = system: HOP-62
# [9] = system: MOLT-4
# [10] = system: NCI-H23
# [11] = system: LOX IMVI
# [12] = system: KM12
# [13] = system: HT-29
# [14] = system: A498
# [15] = system: OVCAR-8
# [16] = system: TK-10
# [17] = system: NCI-H522
# [18] = system: NCI-H226
# [19] = system: HOP-92
SMILES,GI50 [1],GI50 [2],GI50 [3],GI50 [4],GI50 [5],GI50 [6],GI50 [7],GI50 [8],GI50 [9],GI50 [10],GI50 [11],GI50 [12],GI50 [13],GI50 [14],GI50 [15],GI50 [16],GI50 [17],GI50 [18],GI50 [19]
COC(=O)/C=C\c1ccc2c(c1)CC1(C2)Cc2ccc(/C=C/C(=O)OC)cc2C1 (stereo unspecified),27 µM (inactive),> 31.6 µM (inactive),> 31.6 µM (inactive),0.918 µM (active),> 31.6 µM (inactive),22.8 µM (inactive),> 100 µM (inactive),15.2 µM (inactive),> 31.6 µM (inactive),> 31.6 µM (inactive),> 31.6 µM (inactive),> 31.6 µM (inactive),> 31.6 µM (inactive),> 10 µM (inactive),30.8 µM (inactive),> 31.6 µM (inactive),17.4 µM (inactive),> 31.6 µM (inactive),28.4 µM (inactive)
CC(=O)O[C@H]1[C@@H](N2CCN(C)CC2)C[C@H]2[C@@H]3CC=C4C[C@@H](N5CCCC5)CC[C@]4(C)[C@H]3CC[C@@]21C,> 100 µM (inactive),19.2 µM (inactive),> 100 µM (inactive),49.4 µM (inactive),> 100 µM (inactive),> 100 µM (inactive),47.6 µM (inactive),46.5 µM (inactive),15.6 µM (inactive),> 100 µM (inactive),17.4 µM (inactive),22.4 µM (inactive),4.14 µM (inactive),> 100 µM (inactive),85.1 µM (inactive),> 100 µM (inactive),23.4 µM (inactive),> 100 µM (inactive),> 100 µM (inactive)
COC(=O)C(Cc1c[nH]c2ccccc12)NC1=Nc2ccncc2S(=O)(=O)N1c1ccccc1 (stereo unspecified),> 100 µM (inactive),13.1 µM (inactive),78.3 µM (inactive),39.4 µM (inactive),56.1 µM (inactive),24.7 µM (inactive),38.9 µM (inactive),67.3 µM (inactive),15.3 µM (inactive),41.5 µM (inactive),28.2 µM (inactive),31.3 µM (inactive),18.9 µM (inactive),> 100 µM (inactive),34 µM (inactive),> 100 µM (inactive),28 µM (inactive),14.1 µM (inactive),20.7 µM (inactive)
COC(=O)C(C(=O)C(=O)Nc1c(C)cccc1C(C)(C)C)c1nc2ccc(Cl)cc2nc1O (stereo unspecified),86.5 µM (inactive),> 100 µM (inactive),> 100 µM (inactive),> 100 µM (inactive),> 100 µM (inactive),> 100 µM (inactive),> 100 µM (inactive),> 100 µM (inactive),> 100 µM (inactive),> 100 µM (inactive),> 100 µM (inactive),> 100 µM (inactive),> 100 µM (inactive),> 100 µM (inactive),> 100 µM (inactive),> 100 µM (inactive),94.2 µM (inactive),> 100 µM (inactive),> 100 µM (inactive)
C=CCCCCCCCCCOC1C=CC(O)C(CO)O1 (stereo unspecified),54.8 µM (inactive),14.9 µM (inactive),49.5 µM (inactive),56 µM (inactive),46 µM (inactive),46.6 µM (inactive),54.8 µM (inactive),50.5 µM (inactive),25.5 µM (inactive),28.2 µM (inactive),31.6 µM (inactive),27.2 µM (inactive),22.6 µM (inactive),99.5 µM (inactive),17.5 µM (inactive),36.7 µM (inactive),33.2 µM (inactive),> 100 µM (inactive),33.5 µM (inactive)
NC(=S)N/N=C\c1ccc(OCc2cccc(COc3ccc(/C=N/NC(N)=S)cc3)n2)cc1,> 100 µM (inactive),4.33 µM (inactive),> 100 µM (inactive),17 µM (inactive),> 100 µM (inactive),44.2 µM (inactive),> 100 µM (inactive),> 100 µM (inactive),34.7 µM (inactive),69.3 µM (inactive),> 100 µM (inactive),> 100 µM (inactive),> 100 µM (inactive),> 100 µM (inactive),> 100 µM (inactive),76.7 µM (inactive),2.88 µM (inactive),> 100 µM (inactive),> 100 µM (inactive)
O=C1c2c(O)ccc(O)c2C(=O)c2c(NCCNC(=O)C(O)C(O)C(O)C(O)CO)ccc(NCCNC(=O)C(O)C(O)C(O)C(O)CO)c21 (stereo unspecified),< 0.01 µM (active),< 0.01 µM (active),< 0.01 µM (active),< 0.01 µM (active),0.213 µM (active),0.18 µM (active),0.0241 µM (active),0.011 µM (active),< 0.01 µM (active),0.0178 µM (active),0.0134 µM (active),0.0277 µM (active),0.03 µM (active),0.149 µM (active),< 0.0231 µM (active),0.161 µM (active),< 0.02 µM (active),< 0.0126 µM (active),< 0.01 µM (active)
CCOC(=O)c1cn2c(n1)sc1cc(Cl)ccc12,8.28 µM (inactive),8.41 µM (inactive),11.4 µM (inactive),19.2 µM (inactive),24.7 µM (inactive),> 100 µM (inactive),30.6 µM (inactive),18.1 µM (inactive),2.96 µM (inactive),62.2 µM (inactive),7.78 µM (inactive),4.54 µM (inactive),17 µM (inactive),33.6 µM (inactive),21.9 µM (inactive),> 100 µM (inactive),31.2 µM (inactive),72.6 µM (inactive),> 100 µM (inactive)
O=C(O)C12CC3(C(=O)O)CC(C(=O)O)(CC(C(=O)O)(C1)C3=O)C2=O,> 100 µM (inactive),> 100 µM (inactive),> 100 µM (inactive),> 100 µM (inactive),> 100 µM (inactive),> 100 µM (inactive),> 100 µM (inactive),> 100 µM (inactive),> 100 µM (inactive),> 100 µM (inactive),> 100 µM (inactive),> 100 µM (inactive),> 100 µM (inactive),> 100 µM (inactive),> 100 µM (inactive),> 100 µM (inactive),> 100 µM (inactive),> 100 µM (inactive),> 100 µM (inactive)
Cc1nnc(N)nc1C/C=C/C(Sc1ccc(Cl)cc1)c1ccccc1 (stereo unspecified),3.05 µM (inactive),1.43 µM (inactive),4.41 µM (inactive),5.7 µM (inactive),3.27 µM (inactive),4.94 µM (inactive),2.4 µM (inactive),5.28 µM (inactive),2.56 µM (inactive),3.17 µM (inactive),2.26 µM (inactive),3.56 µM (inactive),7.01 µM (inactive),3.73 µM (inactive),5.04 µM (inactive),7.14 µM (inactive),1.81 µM (inactive),1.86 µM (inactive),5.68 µM (inactive)
Cc1ccc(C(=O)/C=C2/Nc3ccccc3NC2=O)c(C)c1,9.71 µM (inactive),25.2 µM (inactive),16 µM (inactive),3.95 µM (inactive),16.2 µM (inactive),2.7 µM (inactive),6.95 µM (inactive),5.62 µM (inactive),45.5 µM (inactive),16.1 µM (inactive),22.6 µM (inactive),20.8 µM (inactive),23.4 µM (inactive),0.228 µM (active),5.28 µM (inactive),5.58 µM (inactive),7.73 µM (inactive),10.8 µM (inactive),3.04 µM (inactive)
CC(=O)C(C(=N)C#N)C(=O)Nc1ccccc1 (stereo unspecified),> 100 µM (inactive),> 100 µM (inactive),> 100 µM (inactive),> 100 µM (inactive),44.9 µM (inactive),> 100 µM (inactive),> 100 µM (inactive),> 100 µM (inactive),> 100 µM (inactive),> 100 µM (inactive),> 100 µM (inactive),> 100 µM (inactive),> 100 µM (inactive),> 100 µM (inactive),> 100 µM (inactive),> 100 µM (inactive),> 100 µM (inactive),> 100 µM (inactive),> 100 µM (inactive)
Cc1nc2sc3cccc(Cl)c3n2c(=O)c1/N=N/c1ccc(Cl)cc1,> 100 µM (inactive),> 100 µM (inactive),> 100 µM (inactive),> 100 µM (inactive),45.9 µM (inactive),> 100 µM (inactive),58.9 µM (inactive),75.2 µM (inactive),44.9 µM (inactive),99.8 µM (inactive),58.1 µM (inactive),> 100 µM (inactive),67.1 µM (inactive),17.4 µM (inactive),> 100 µM (inactive),> 100 µM (inactive),45.7 µM (inactive),42.4 µM (inactive),46.6 µM (inactive)
N#Cc1c(NC(=O)C(F)(F)F)sc2c3c(=O)c4ccccc4c(=O)c=3oc3ccccc3c12,20.3 µM (inactive),12.7 µM (inactive),21.9 µM (inactive),15.4 µM (inactive),2.49 µM (inactive),14.7 µM (inactive),7.98 µM (inactive),20.5 µM (inactive),11.7 µM (inactive),9.84 µM (inactive),13 µM (inactive),9.84 µM (inactive),19.2 µM (inactive),33.3 µM (inactive),15.7 µM (inactive),33 µM (inactive),7.89 µM (inactive),8.02 µM (inactive),19.7 µM (inactive)
